Each structure is given as a SMILES string.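 Following 48 hours of exposure in 96-well plates, responses at five concentrations were used to interpolate endpoints linearly. Definition used: TGI = concentration required for complete inhibition of growth.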

Data on 14 compounds can be found in PubChem BioAssay (NCI).

Some test systems named below: UACC-257 melanoma; IGROV1 ovarian; OVCAR-3 ovarian; HCT-15 colon; NCI-H23 lung; SW-620 colon; TK-10 renal; MOLT-4 leukemia; KM12 colon; LOX IMVI melanoma.
Holding throughout (assay): NCI anticancer screen, dose series, 48 h

Take `O=S1(=O)c2ccccc2NC(=S)N1c1ccccc1`: the TGI in the assay on UACC-257 melanoma was above 89.2 µM; in the assay with IGROV1 ovarian it was above 100 µM; in the assay with OVCAR-3 ovarian, above 100 µM; with HCT-15 colon, above 100 µM; with NCI-H23 lung, above 100 µM; in the assay on SW-620 colon, above 100 µM. In addition, the TGI in the assay on TK-10 renal was above 100 µM; in the assay with MOLT-4 leukemia, above 100 µM; with KM12 colon it was above 100 µM; with LOX IMVI melanoma, above 66.1 µM.

On to `Cc1ccc2c(c1)C(=O)/C(=C\c1ccc(Cl)cc1)CCS2(=O)=O`, for which the TGI in the assay on UACC-257 melanoma was 7.23 µM; in the assay with IGROV1 ovarian, 7.56 µM; in the assay on OVCAR-3 ovarian, 19.5 µM; in the assay on HCT-15 colon, 5.01 µM; in the assay on NCI-H23 lung, 10.2 µM; in the assay on SW-620 colon, 12.1 µM. Further, the TGI in the assay on TK-10 renal was determined as 5.11 µM; with MOLT-4 leukemia it was 9.79 µM; with KM12 colon, 7.71 µM; with LOX IMVI melanoma, 6.43 µM.

Take `O=C(O)c1cc2ccccc2c(S(=O)(=O)O)c1O`: the TGI with UACC-257 melanoma, in the assay on IGROV1 ovarian, in the assay with OVCAR-3 ovarian, in the assay with HCT-15 colon, in the assay with NCI-H23 lung and with SW-620 colon was above 100 µM throughout. For the same compound, the TGI in the assay on TK-10 renal, with MOLT-4 leukemia, with KM12 colon and in the assay with LOX IMVI melanoma was above 100 µM each time.

In the case of `COC(=O)C(=O)C(C(=O)C(=O)Nc1cc([N+](=O)[O-])ccc1C#N)c1nc2ccccc2[nH]c1=O` (stereo not given), the TGI with UACC-257 melanoma, in the assay on IGROV1 ovarian, with OVCAR-3 ovarian, in the assay with HCT-15 colon, in the assay with NCI-H23 lung and with SW-620 colon was above 100 µM each time. Also, the TGI in the assay on TK-10 renal, with MOLT-4 leukemia, in the assay on KM12 colon and in the assay with LOX IMVI melanoma was above 100 µM in each case.

As to `CCOC(=O)Cc1nn2c(=O)cc(C)nc2s1`, the TGI with UACC-257 melanoma, in the assay on IGROV1 ovarian, with OVCAR-3 ovarian, in the assay with HCT-15 colon, in the assay on NCI-H23 lung and in the assay on SW-620 colon was above 100 µM in each case. In addition, the TGI with TK-10 renal, with MOLT-4 leukemia, in the assay with KM12 colon and in the assay with LOX IMVI melanoma was above 100 µM throughout.

As for `CC(C)Cc1c(C#N)c(C#N)c(N)n1Cc1ccccc1`, the TGI in the assay with UACC-257 melanoma, in the assay on IGROV1 ovarian, with OVCAR-3 ovarian, with HCT-15 colon, with NCI-H23 lung and in the assay on SW-620 colon was above 100 µM in each case. Also, the TGI in the assay with TK-10 renal, in the assay on MOLT-4 leukemia, with KM12 colon and in the assay with LOX IMVI melanoma was above 100 µM each time.

Turning to `c1ccc([P+](Cc2csnn2)(c2ccccc2)c2ccccc2)cc1`, the TGI in the assay on UACC-257 melanoma, in the assay on IGROV1 ovarian, in the assay on OVCAR-3 ovarian, in the assay on HCT-15 colon, in the assay on NCI-H23 lung and with SW-620 colon was above 100 µM in each case. Further, the TGI with TK-10 renal, in the assay with MOLT-4 leukemia, with KM12 colon and in the assay on LOX IMVI melanoma was above 100 µM each time.

Consider `Clc1cccc(C2ON=C(c3ccccc3)N2C23CC4CC(CC(C4)C2)C3)c1Cl` (stereo not given), for which the TGI with UACC-257 melanoma, in the assay on IGROV1 ovarian, with OVCAR-3 ovarian, with HCT-15 colon, in the assay with NCI-H23 lung and with SW-620 colon was above 10 µM each time. Also, the TGI in the assay on TK-10 renal, in the assay on MOLT-4 leukemia, in the assay on KM12 colon and in the assay on LOX IMVI melanoma was above 10 µM throughout.

Consider `COc1cc(/C=C/c2cc(=O)cc(/C=C/c3ccc(O)c(OC)c3)o2)ccc1O`, for which the TGI with UACC-257 melanoma, in the assay with IGROV1 ovarian, with OVCAR-3 ovarian, in the assay on HCT-15 colon, in the assay with NCI-H23 lung and in the assay on SW-620 colon was above 100 µM throughout. Also, the TGI with TK-10 renal, in the assay with MOLT-4 leukemia, in the assay on KM12 colon and in the assay with LOX IMVI melanoma was above 100 µM in each case.

Regarding `COc1ccc(N2C(=O)C3c4[nH]c5ccccc5c4C4C(C)CCCC4C3C2=O)cc1` (stereo not given), the TGI with UACC-257 melanoma, in the assay on IGROV1 ovarian, in the assay with OVCAR-3 ovarian, in the assay with HCT-15 colon, in the assay on NCI-H23 lung and in the assay with SW-620 colon was above 100 µM in each case. The TGI in the assay on TK-10 renal, with MOLT-4 leukemia, in the assay with KM12 colon and in the assay with LOX IMVI melanoma was above 100 µM each time.

As for `O=CN(O)CC(=O)O`, the TGI with UACC-257 melanoma, in the assay with IGROV1 ovarian, in the assay with OVCAR-3 ovarian, in the assay with HCT-15 colon, in the assay with NCI-H23 lung and in the assay on SW-620 colon was above 100 µM in each case. Besides, the TGI in the assay with TK-10 renal, in the assay with MOLT-4 leukemia, in the assay with KM12 colon and in the assay with LOX IMVI melanoma was above 100 µM each time.

As to `O=C(/C=C1\C[C@H]2C=Nc3ccccc3C(=O)N2C1)NCCCCCNC(=O)/C=C1\C[C@H]2C=Nc3ccccc3C(=O)N2C1`, the TGI with UACC-257 melanoma worked out at 15.7 µM; in the assay with IGROV1 ovarian, 23.1 µM; in the assay with OVCAR-3 ovarian it was 14.2 µM; with HCT-15 colon it was 10.6 µM; in the assay on NCI-H23 lung, 26.2 µM; in the assay with SW-620 colon it was 5.93 µM. Also, the TGI in the assay on TK-10 renal is 10.5 µM; in the assay on MOLT-4 leukemia, above 100 µM; in the assay on KM12 colon it was 41 µM; in the assay with LOX IMVI melanoma, 4.47 µM.

`CCOC(=O)c1ccc(C(=O)/C(C(=O)OC(C)(C)C)=C2\CCCN2C)n1C`: the TGI with UACC-257 melanoma, in the assay with IGROV1 ovarian, in the assay on OVCAR-3 ovarian, in the assay on HCT-15 colon, in the assay with NCI-H23 lung and with SW-620 colon was above 100 µM throughout. In addition, the TGI with TK-10 renal, in the assay on MOLT-4 leukemia, in the assay on KM12 colon and in the assay on LOX IMVI melanoma was above 100 µM throughout.

`O=c1c(Cc2ccccc2)c(-c2ccccc2)[nH]n1C1=NCCN1`: the TGI in the assay with UACC-257 melanoma, with IGROV1 ovarian, in the assay on OVCAR-3 ovarian, in the assay on HCT-15 colon, in the assay on NCI-H23 lung and with SW-620 colon was above 100 µM in each case. In addition, the TGI is above 100 µM in the assay with TK-10 renal, above 100 µM with MOLT-4 leukemia, above 100 µM with KM12 colon and 38.1 µM in the assay with LOX IMVI melanoma.
